Test results as given in patent publication US10806794B2, “Protease inhibitors having enhanced features” (priority 2008, dated 2020).
Read-outs that look alike come from different tables or passages of the source.

How the values were obtained:
[1] = system: human liver microsomal proteins; assay: Microsomal protein binding by equilibrium dialysis; assay type: in vitro ADME; conditions: human liver microsomes, 3 μM, fraction unbound
Method: PEGylated protease inhibitors were evaluated for their propensity to be bound by proteins in normal human plasma or in human liver microsome preparations using equilibrium dialysis analysis. For microsomal protein binding, test compound (final concentration=3 μM) was diluted into either buffer alone or buffer containing human liver microsomes. The protein-free and microsome-containing solutions were then added to either side of an equilibrium dialysis system and allowed to reach equilibrium at 37° C. The concentration of compound on both sides of the membrane at equilibrium was quantified by LC-MS/MS, and the fraction of compound that remains unbound (Fu) is calculated.

[2] = molecular target: recombinant HIV-1 protease (Human immunodeficiency virus type 1 group M subtype B (isolate HXB2) (HIV-1), UniProt P04585); assay: Enzyme inhibition of purified HIV-1 protease (SensoLyte 520 HIV-Protease Assay Kit); assay type: biochemical; conditions: read-out: IC50 ± SD
Method: Protease inhibitors (PI) are used to treat HIV infection by preventing viral assembly and maturation through the inhibition of HIV-1 protease activity. Biochemical assays were performed to evaluate the potential of PEG-PI conjugates to inhibit HIV-1 protease activity, relative to their respective PI parent molecules. Activity assays were performed at using the SensoLyte 520 HIV-Protease Assay Kit (Anaspec Inc., San Jose, Calif.) and recombinant HIV-1 protease. Protease activity was monitored by the formation of a fluorescent reporter product generated during HIV-1 protease-mediated digestion of a quenched, fluorimetric substrate containing the p17/p24 Pr^gag cleavage site.

[3] = system: CEM-SS cells
Method: (§1) To evaluate whether conjugated protease inhibitors retain the ability to protect against HIV-1 infection, CEM-SS cells infected with the RF strain of HIV-1 were treated with test compounds for six days, and then cell viability was monitored using the tetrazolium dye XTT. […] A value for Therapeutic Index (TI) was calculated as TC50/EC50.

[4] = system: HIV-1RF; assay: Anti-HIV cytoprotection in CEM-SS cells infected with HIV-1RF (XTT); assay type: cell-based; conditions: six days, XTT; read-out: CEM-SS/HIV-1RF EC50 ± SD
Method: as §1

[5] = system: human plasma proteins; assay: Plasma protein binding by equilibrium dialysis, human plasma; assay type: in vitro ADME; conditions: human plasma, 5 μM, fraction unbound
Method: In assays to estimate binding of test compounds to plasma proteins, test compound solutions (5 μM) are prepared in buffer and species-specific plasma (final DMSO concentration 0.5%). The plasma-containing solution is added to one side of the membrane of an equilibrium dialysis system, and the plasma-free is added to the other side. Dialysis was allowed to reach equilibrium by incubation for two hours at 37° C. The concentration of compound on both sides of the membrane was measured using LC-MS/MS.

[6] = system: PBMCs; assay: PBMC cytotoxicity (XTT); assay type: cell-based, human; conditions: 7 days
Method: Mononuclear cells were isolated from fresh human peripheral blood cells by Ficoll-Hypaque density gradient by centrifugation at 600 g for 30 minutes. Banded peripheral blood mononuclear cells (PBMCs) were aspirated from the resulting interface and washed with phosphate buffered saline by low speed centrifugation. Cell viability was evaluated by Trypan Blue dye exclusion. […] Plates were incubated at 37° C., 5% CO2 for 7 days prior to cytotoxicity evaluation. XTT measurement for cytotoxicity.

[7] = system: PBMCs; assay: PBMC macromolecule synthesis (tritiated precursor incorporation); assay type: cell-based, human; conditions: for Thymidine Incorporation (PBMC) TC50: DNA synthesis; for Uridine Incorporation (PBMC) TC50: RNA synthesis; for Leucine Incorporation (PBMC) TC50: protein synthesis
Method: Cellular macromolecule synthesis was evaluated using tritiated precursor incorporation assays. PBMCs (5×10^4 cells/well) were cultured in the presence or absence of test compound for 7 days at 37 C, 5% CO2 in a 96-well microtiter plate. On day 6 of the incubation, 1 uCi of [methyl-3H]-thymidine for DNA synthesis, [5-3H]-uridine for RNA synthesis, or [3,4,5-3H]-leucine for protein synthesis was added to compound-treated cells, and the plate was further incubated for 16 hours. The cells were transferred to a glass fiber filtermat using an Inotech cell harvester. The filtermats were washed with distilled water then sealed in a bag with scintillation fluid. Incorporated radioactivity was measured using a Wallac scintillation counter.

[8] = system: Caco-2 cells; assay: Bi-directional permeability in Caco-2 monolayers; conditions: for Efflux ratio (B→A/A→B): Caco-2 monolayers; for A→B, ×10^−6: human, Caco-2
Method: Absorption properties of various compounds were measured using bi-directional permeability assays in Caco-2 cells. […] The efflux ratio is calculated as the ratio of the Papp(B→A)/Papp(A→B).

[9] = system: human hepatocytes; assay: Metabolic stability in cryopreserved human hepatocytes; conditions: human hepatocytes, 3 uM, incubated up to one hour
Method: Metabolism of PI conjugates was investigated by monitoring the levels of unmetabolized parent compound following incubation with cryopreserved human or monkey hepatocytes. The use of whole hepatocytes rather than microsomes requires that the drugs cross the cell membrane to interact with intracellularly-localized metabolic enzymes, and thus provides the most relevant in vitro system for understanding overall metabolic stability of these compounds.
Test compounds (0.1 μM or 3 μM, as indicated) are incubated with cryopreserved human hepatocytes at a cell density of 0.5×10^6 viable cells/mL. […] Duplicate samples (50 μL) are removed from the incubation mixture at various timepoints up to four hours (for 0.1 μM test compound concentration), or one or two hours (for 3 μM test compound concentration), and the reaction is quenched by the addition of methanol containing internal standard (100 μL). The samples are centrifuged (2500 rpm at 4° C. for 20 min), and the supernatants at each time point pooled for cassette analysis by LC-MS/MS.

[10] = molecular target: CYP3A4 (Homo sapiens (Human), UniProt P08684); assay: CYP450 inhibition in human liver microsomes: CYP3A4;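 also: incubation at 37 °C started by adding 1 mM NADPH, with formation of the probe metabolite measured via LC-MS/MS or fluorescent detection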
[11] = read-out: CYP3A4 IC50 Midazolam, probe substrate midazolam
[12] = read-out: CYP3A4 IC50 Testosterone, probe substrate testosterone

Chain of CYP3A4 (P08684 whole entry): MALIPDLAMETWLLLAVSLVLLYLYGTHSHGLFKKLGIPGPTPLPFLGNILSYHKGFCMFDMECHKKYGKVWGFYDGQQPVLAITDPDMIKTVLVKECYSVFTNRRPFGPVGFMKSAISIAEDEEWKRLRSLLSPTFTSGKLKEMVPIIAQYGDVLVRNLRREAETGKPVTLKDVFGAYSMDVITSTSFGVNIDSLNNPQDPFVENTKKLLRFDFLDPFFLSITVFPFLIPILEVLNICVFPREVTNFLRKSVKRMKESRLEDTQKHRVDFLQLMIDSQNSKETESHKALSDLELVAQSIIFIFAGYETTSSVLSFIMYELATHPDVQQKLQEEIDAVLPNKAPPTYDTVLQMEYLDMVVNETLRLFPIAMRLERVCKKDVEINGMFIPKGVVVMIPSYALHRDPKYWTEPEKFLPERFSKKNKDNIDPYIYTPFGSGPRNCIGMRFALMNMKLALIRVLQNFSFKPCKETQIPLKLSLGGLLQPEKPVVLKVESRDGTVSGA

| Compound | Microsomal Protein Binding Fu ± SD [1] | IC50 [2] | CEM-SS TC50 ± SD ([3]; absence of viral infection) | EC50 [4] | Plasma Protein Binding Fu ± SD [5] | XTT (PBMC) TC50 [6] | Thymidine Incorporation (PBMC) TC50 [7] | Uridine Incorporation (PBMC) TC50 [7] | Leucine Incorporation (PBMC) TC50 [7] | Efflux ratio (B→A/A→B) [8] | A→B, ×10^−6 [8] | CEM-SS TC50 ± SD [3] | CLint ± SEM [9] | IC50 [10, 11] | IC50 [10, 12] |
| --- | --- | --- | --- | --- | --- | --- | --- | --- | --- | --- | --- | --- | --- | --- | --- |
| CCC(C1=C(O)CC(CCCNC(=O)OC)(CCc2ccccc2)OC1=O)c1cccc(NS(=O)(=O)c2ccc(C(F)(F)F)cn2)c1 (mixture of isomers) [mPEG0-OCO—NH-Tipranavir] | 0.887 ± 0.0749 | 0.000292 µM | 54.3 µM | 0.29 µM | 0.0105 ± 0.00848 | – | – | – | – | – | – | – | – | – | – |
| CCC(C1=C(O)CC(CCCNC(=O)OCCOC)(CCc2ccccc2)OC1=O)c1cccc(NS(=O)(=O)c2ccc(C(F)(F)F)cn2)c1 (mixture of isomers) [mPEG1-OCO—NH-Tipranavir] | 0.85 ± 0.184 | 0.000188 µM | 49.5 µM | 0.12 µM | 0.0145 ± 0.000403 | – | – | – | – | – | – | – | – | – | – |
| CCC(C1=C(O)CC(CCCNC(=O)OCCOCCOCCOC)(CCc2ccccc2)OC1=O)c1cccc(NS(=O)(=O)c2ccc(C(F)(F)F)cn2)c1 (mixture of isomers) [mPEG3-OCO—NH-Tipranavir] | 0.816 ± 0.0104 | 0.000617 µM | 67.6 µM | 0.87 µM | 0.0292 ± 0.000428 | – | – | – | – | – | – | – | – | – | – |
| CCC(C1=C(O)CC(CCCNC(=O)OCCOCCOCCOCCOCCOC)(CCc2ccccc2)OC1=O)c1cccc(NS(=O)(=O)c2ccc(C(F)(F)F)cn2)c1 (mixture of isomers) [mPEG5-OCO—NH-Tipranavir] | highly unbound | 0.000462 µM | 86.1 µM | 1.06 µM | 0.0304 ± 0.000274 | – | – | – | – | – | – | – | – | – | – |
| C[S+](C)[O-] [DMSO, reference compound] | – | – | – | – | – | >2.0% | >2.0% | 0.06% | 0.19% | – | – | – | – | – | – |
| COCCOCCOCCOCCOCCOC(=O)N[C@@H](C(=O)NC(Cc1ccccc1)[C@@H](O)CN(Cc1ccc(-c2ccccn2)cc1)NC(=O)[C@H](NC(=O)OCCOCCOCCOCCOCCOC)C(C)(C)C)C(C)(C)C (some centres unmarked) [di-mPEG5-Atazanavir] | highly unbound | 0.0173 µM | – | 1.11 µM | 0.537 ± 0.0412 | – | – | – | – | >10.8 | 0.06 cm/s | >200.0 µM | 0.824 ± 0.950 μL/min/10^6 cells | > 50 µM | > 50 µM |
| COCCOCCOCCOCCOCCOCCOC(=O)N[C@@H](C(=O)NC(Cc1ccccc1)[C@@H](O)CN(Cc1ccc(-c2ccccn2)cc1)NC(=O)[C@H](NC(=O)OCCOCCOCCOCCOCCOCCOC)C(C)(C)C)C(C)(C)C (some centres unmarked) [di-mPEG6-Atazanavir] | highly unbound | 0.0156 µM | – | 2.54 µM | 0.868 ± 0.0163 | – | – | – | – | – | – | 158.6 µM | – | – | – |
| COCCOCCOCCOCCOCCOCCOCCOC(=O)N[C@@H](C(=O)NC(Cc1ccccc1)[C@@H](O)CN(Cc1ccc(-c2ccccn2)cc1)NC(=O)[C@H](NC(=O)OCCOCCOCCOCCOCCOCCOCCOC)C(C)(C)C)C(C)(C)C (some centres unmarked) [di-mPEG7-Atazanavir] | highly unbound | 0.0109 µM | – | 8.35 µM | highly unbound | – | – | – | – | >3.6 | 0.06 cm/s | >200.0 µM | – | > 50 µM | > 50 µM |
| CCCC1(CCc2ccccc2)CC(O)=C(C(CC)c2cccc(N(CCOCCOCCOC)S(=O)(=O)c3ccc(C(F)(F)F)cn3)c2)C(=O)O1 (centres unmarked) [mPEG3-amide-Tipranavir] | 0.73 ± 0.0153 | – | – | 0.08 µM | 0.014 ± 0.00166 | – | – | – | – | – | – | 1.3 µM | 1.66 ± 1.24 μL/min/10^6 cells | 2.5 µM | ~2.1 µM |
| CCCC1(CCc2ccccc2)CC(O)=C(C(CC)c2cccc(N(CCOCCOCCOCCOCCOC)S(=O)(=O)c3ccc(C(F)(F)F)cn3)c2)C(=O)O1 (centres unmarked) [mPEG5-amide-Tipranavir] | highly unbound | – | – | > 200 µM | 0.0308 ± 0.00399 | – | – | – | – | – | – | 12.8 µM | 3.62 ± 0.527 μL/min/10^6 cells | 1.7 µM | 2.8 µM |
| CCC[C@@]1(CCc2ccccc2)CC(O)=C([C@H](CC)c2cccc(N(CCOCCOCCOCCOCCOCCOCCOC)S(=O)(=O)c3ccc(C(F)(F)F)cn3)c2)C(=O)O1 [mPEG7-amide-Tipranavir] | highly unbound | 0.0122 µM | – | > 200 µM | 0.029 ± 0.00436 | – | – | – | – | – | – | 14.5 µM | 0.162 ± 0.343 μL/min/10^6 cells | 2.6 µM | ~4 µM |
| Triton X-100 [reference compound] | – | – | – | – | – | 0.003% | 0.002% | 0.0009% | 0.0006% | – | – | – | – | – | – |
